The source of these data is publication PMC6664396, “A golden opportunity: benzofuranone modifications of aurones and their influence on optical properties, toxicity, and potential as dyes” (Beilstein Journal of Organic Chemistry, 2019).

For data set [1], the system named is Hep G2 human liver cancer cells. The experiment in a line: Hep G2 cytotoxicity assay (MTT). The class given is cell-based. Conditions: for % Inhibition: Hep G2 MTT absorbance relative to vehicle. As to the method:
An initial screening of toxicity was conducted at a fairly high concentration (200 μM) on the present series of compounds using a standard HEP G2 inhibition assay (Table 1). Compared to a currently used yellow dye (tartrazine), the aurones are similar to more toxic. Within the aurone series, though, an interesting pair of trends can be observed. First, all hydroxylated aurones are comparatively more toxic, displaying >50% inhibition at 200 μM. Methyl groups are similarly mostly more toxic. For the halogens, however, location is fairly important, with the 6 or 7 position being much less toxic (similar to tartrazine) and dramatically better than the unsubstituted base compound 1, with the unexpected exception of 7-bromo compound 10. Whether this trend is general or not for aurone compounds is an interesting question for future study.
Hep G2 cytotoxicity assay
Hep G2 human liver cancer cells were cultured in phenol red Dulbecco’s
Modified Eagle Medium (DMEM) with 10% fetal bovine serum (FBS) and 1% Pen-strep (PSG) under 37°C and 5% CO2 atmospheric conditions. The cells were washed with phosphate buffered saline (PBS) and diluted with phenol red free DMEM to a concentration between 200,000 to 250,000 cells/mL. The cells we re distributed in a 96-well plate with each well containing 100 µL of the cell solution and were allowed to settle for 2 hours in the incubator. The cells were then treated with 200 µM of the aurones in DMSO and the known dyes in 10:90 (v:v) DMSO/ultrapure water in triplicates and were left in the incubator for 3 days. The vehicles were used as the negative controls (DMSO for the aurones and 10:90 DMSO:ultrapure water for the known dyes). 20 µL of 5 mg/mL MTT (3-(4,5-dimethylthiazol-2-yl)-2,5-diphenyltetrazolium bromide) was added to each well containing treated cells after the 3-day incubation period and was allowed to settle in the incubator for 3.5 more hours. Finally, the media was removed from the wells and replaced by 100 µL of DMSO to lyse the cells and dissolve the formazan crystals that were formed. The absorbance was then recorded on the SpectraMax M5 Multi -Mode Microplate Reader. The procedure was repeated two more times using different batches of cultured Hep G2 cells on different days. […]

The nature of data set [2]: UV–vis spectra in acetonitrile (λmax, extinction coefficient). It counts as physicochemical. Further details: λmax: unit: nm. As for the experimental part:
With the desired compounds in hand, their UV–visible spectra were recorded at concentrations between 29 and 44 μM in acetonitrile (Figure 3 and Table 1). While not all substituents were prepared at every position, some interesting trends were observed. Substitution at the 4-position whether halogen or hydroxy afforded essentially identical lambda maxima (390 nm), slighly red-shifted compared to the unsubstituted compound 1. On the other hand, hydroxy groups at the 6-position result in a significant blue shift of this lambda max by roughly 40 nm to around 338 nm, presumably due to their donating effect and conjugation with the carbonyl oxygen. […] On the other hand, substitution at the 7-position had virtually no effect, which is to be expected due to the lack of direct conjugation with the carbonyl as well as the only modest electronic effects of alkyl, chlorine, and bromine. In general, the substituent effects are all fairly modest and result in fairly moderate changes in the extinction coefficient (although hydroxy substitution does definitely increase this value by roughly 50%).

One may read the % Inhibition as the share of the control response that was lost under treatment. For the compound `Cc1ccc(/C=C2\Oc3cc(C)c(C)cc3C2=O)cc1` [Compound 12], the “Hep G2 % inhibition” value in data set [1] (200 μM concentration of compound, 3 days incubation, MTT readout) came out at 24.95 ± 2.23%. The entries for the “% Inhibition” value in data set [1] (Triplicate 1), in data set [1] (Triplicate 2) and in data set [1] (Triplicate 3) were 30.58%, 22.83% and 21.44%, respectively. The ε was 19522 L/mol/cm in data set [2] (UV–vis in CH3CN, at λmax) and 19522 in data set [2] (supplement sheet Tabular ε Data, slope of linear equation, unit not given, in L mol⁻¹ cm⁻¹). In addition, the λmax in data set [2] (UV–vis spectra determined in CH3CN) came to 382 nm; in data set [2] (supplement sheet Tabular ε Data, unit not given) it was 382.
